pKi: −log10 of the molar value.
The compounds below were run against T1, purified human Factor XIa (Homo sapiens, UniProt P03951) (assay: Factor XIa enzyme inhibition assay (chromogenic substrate S-2366), Ki). Settings: substrate S-2366, pH 7.4.
T1 construct: purchased Haematologic Technologies
Format: biochemical
Procedure, shortened: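 Purified human Factor XIa ([…] final) with chromogenic substrate S-2366 (0.0002-0.001 M) in 50 mM HEPES pH 7.4, 145 mM NaCl, 5 mM KCl, 0.1% PEG 8000. Velocities measured over 20-180 minutes with and without inhibitor; Ki derived assuming competitive inhibition, e.g. Ki=IC50/(1+S/Km).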

T1 sequence (P03951 388-625 limits assumed): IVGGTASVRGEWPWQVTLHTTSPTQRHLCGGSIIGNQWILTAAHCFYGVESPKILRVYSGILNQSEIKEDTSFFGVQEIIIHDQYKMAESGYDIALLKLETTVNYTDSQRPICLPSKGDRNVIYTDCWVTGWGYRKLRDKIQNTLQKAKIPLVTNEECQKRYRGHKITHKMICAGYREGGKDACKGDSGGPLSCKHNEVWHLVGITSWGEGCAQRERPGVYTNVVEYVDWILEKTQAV
T1 sequence (P03951 19-387 partner limits assumed): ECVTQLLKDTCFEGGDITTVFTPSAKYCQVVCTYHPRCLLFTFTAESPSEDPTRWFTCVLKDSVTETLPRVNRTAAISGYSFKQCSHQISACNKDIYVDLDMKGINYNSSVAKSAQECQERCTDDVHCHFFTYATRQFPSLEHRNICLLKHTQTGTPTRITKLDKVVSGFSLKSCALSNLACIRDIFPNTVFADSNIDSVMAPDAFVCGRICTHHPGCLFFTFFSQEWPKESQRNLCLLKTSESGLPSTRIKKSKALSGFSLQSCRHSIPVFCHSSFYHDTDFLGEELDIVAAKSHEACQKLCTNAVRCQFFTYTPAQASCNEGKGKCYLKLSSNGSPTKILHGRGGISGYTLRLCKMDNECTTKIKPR

Row | SMILES | pKi
1 | O=C(Nc1ncnc2[nH]ncc12)[C@H](Cc1ccccc1)n1cnc(-c2cc(Cl)ccc2-n2cc(Cl)nn2)cc1=O [Example 109, (S)-2-(4-(5-chloro-2-(4-chloro-1H-1,2,3-triazol-1-yl)phenyl)-6-oxopyrimidin-1(6H)-yl)-3-phenyl-N-(1H-pyrazolo[3,4-d]pyrimidin-4-yl)propanamide] | 6.82
2 | Cc1ccc2c(NC(=O)[C@H](Cc3ccccc3)n3cnc(-c4cc(Cl)ccc4-n4cc(Cl)nn4)cc3=O)noc2c1 [Example 113, (S)-2-(4-(5-chloro-2-(4-chloro-1H-1,2,3-triazol-1-yl)phenyl)-6-oxopyrimidin-1(6H)-yl)-N-(6-methylbenzo[d]isoxazol-3-yl)-3-phenylpropanamide] | 7.13
3 | O=C(Nc1noc2cc(Br)ccc12)[C@H](Cc1ccccc1)n1cnc(-c2cc(Cl)ccc2-n2cc(Cl)nn2)cc1=O [Example 114, (S)-N-(6-bromobenzo[d]isoxazol-3-yl)-2-(4-(5-chloro-2-(4-chloro-1H-1,2,3-triazol-1-yl)phenyl)-6-oxopyrimidin-1(6H)-yl)-3-phenylpropanamide] | 6.47
4 | O=C(Nc1noc2c(Cl)cccc12)[C@H](Cc1ccccc1)n1cnc(-c2cc(Cl)ccc2-n2cc(Cl)nn2)cc1=O [Example 115, (S)-2-(4-(5-chloro-2-(4-chloro-1H-1,2,3-triazol-1-yl)phenyl)-6-oxopyrimidin-1(6H)-yl)-N-(7-chlorobenzo[d]isoxazol-3-yl)-3-phenylpropanamide] | 6.52
5 | Cc1nc2ccc(CNC(=O)[C@H](Cc3ccccc3)n3cnc(-c4cc(Cl)ccc4-n4cc(Cl)nn4)cc3=O)cc2[nH]1 [Example 116, (S)-2-(4-(5-chloro-2-(4-chloro-1H-1,2,3-triazol-1-yl)phenyl)-6-oxopyrimidin-1(6H)-yl)-N-((2-methyl-1H-benzo[d]imidazol-6-yl)methyl)-3-phenylpropanamide] | 6.33
6 | O=C1NCc2ccc(NC(=O)[C@H](Cc3ccccc3)n3cnc(-c4cc(Cl)ccc4-n4cc(Cl)nn4)cc3=O)cc21 [Example 117, (S)-2-(4-(5-chloro-2-(4-chloro-1H-1,2,3-triazol-1-yl)phenyl)-6-oxopyrimidin-1(6H)-yl)-N-(3-oxoisoindolin-5-yl)-3-phenylpropanamide] | 6.99
7 | O=C(Nc1cnn(-c2ccc(Cl)cc2)c1)[C@H](Cc1ccccc1)n1cnc(-c2cc(Cl)ccc2-n2cc(Cl)nn2)cc1=O [Example 119, (S)-2-(4-(5-chloro-2-(4-chloro-1H-1,2,3-triazol-1-yl)phenyl)-6-oxopyrimidin-1(6H)-yl)-N-(1-(4-chlorophenyl)-1H-pyrazol-4-yl)-3-phenylpropanamide] | 6.39
8 | O=C(Nc1cnn(-c2ccccc2)c1)[C@H](Cc1ccccc1)n1cnc(-c2cc(Cl)ccc2-n2cc(Cl)nn2)cc1=O [Example 120, (S)-2-(4-(5-chloro-2-(4-chloro-1H-1,2,3-triazol-1-yl)phenyl)-6-oxopyrimidin-1(6H)-yl)-3-phenyl-N-(1-phenyl-1H-pyrazol-4-yl)propanamide] | 6.26
9 | O=C(Nc1noc2ccccc12)[C@H](Cc1ccccc1)n1cnc(-c2cc(Cl)ccc2-n2cc(Cl)nn2)cc1=O [Example 121, (S)-N-(benzo[d]isoxazol-3-yl)-2-(4-(5-chloro-2-(4-chloro-1H-1,2,3-triazol-1-yl)phenyl)-6-oxopyrimidin-1(6H)-yl)-3-phenylpropanamide] | 6.80
10 | O=C(Nc1n[nH]c2cccnc12)[C@H](Cc1ccccc1)n1cnc(-c2cc(Cl)ccc2-n2cc(Cl)nn2)cc1=O [Example 122, (S)-2-(4-(5-chloro-2-(4-chloro-1H-1,2,3-triazol-1-yl)phenyl)-6-oxopyrimidin-1(6H)-yl)-3-phenyl-N-(1H-pyrazolo[4,3-b]pyridin-3-yl)propanamide] | 6.20
11 | O=C(Nc1ccnc2ccc(C(F)(F)F)cc12)[C@H](Cc1ccccc1)n1cnc(-c2cc(Cl)ccc2-n2cc(Cl)nn2)cc1=O [Example 123, (S)-2-(4-(5-chloro-2-(4-chloro-1H-1,2,3-triazol-1-yl)phenyl)-6-oxopyrimidin-1(6H)-yl)-3-phenyl-N-(6-(trifluoromethyl)quinolin-4-yl)propanamide] | 5.15
12 | O=C(Nc1ccnc2ccc(Cl)cc12)[C@H](Cc1ccccc1)n1cnc(-c2cc(Cl)ccc2-n2cc(Cl)nn2)cc1=O [Example 124, (S)-2-(4-(5-chloro-2-(4-chloro-1H-1,2,3-triazol-1-yl)phenyl)-6-oxopyrimidin-1(6H)-yl)-N-(6-chloroquinolin-4-yl)-3-phenylpropanamide] | 5.15
13 | O=C(Nc1n[nH]c2ccccc12)[C@H](Cc1ccccc1)n1cnc(-c2cc(Cl)ccc2-n2cc(Cl)nn2)cc1=O [Example 125, (S)-2-(4-(5-chloro-2-(4-chloro-1H-1,2,3-triazol-1-yl)phenyl)-6-oxopyrimidin-1(6H)-yl)-N-(1H-indazol-3-yl)-3-phenylpropanamide] | 7.17
14 | O=C(Nc1ccnc2[nH]ncc12)[C@H](Cc1ccccc1)n1cnc(-c2cc(Cl)ccc2-n2cc(Cl)nn2)cc1=O [Example 126, (S)-2-(4-(5-chloro-2-(4-chloro-1H-1,2,3-triazol-1-yl)phenyl)-6-oxopyrimidin-1(6H)-yl)-3-phenyl-N-(1H-pyrazolo[3,4-b]pyridin-4-yl)propanamide] | 6.67
15 | O=C(O)c1ccc(NC(=O)C(Cc2ccccc2)N2CCC(c3c(F)ccc(Cl)c3F)=CC2=O)cc1 (stereo not drawn) [Example 129, 4-{2-[4-(3-Chloro-2,6-difluorophenyl)-6-oxo-1,2,3,6-tetrahydropyridin-1-yl]-3-phenylpropanamido}benzoic Acid] | 7.11

Continued, values first:

Row | pKi | SMILES
16 | 6.90 | O=C(NC1CCC(O)CC1)[C@H](Cc1ccccc1)n1cnc(-c2cc(Cl)ccc2-n2cc(Cl)nn2)cc1=O (stereo partly drawn) [Example 103, (S)-2-(4-(5-chloro-2-(4-chloro-1H-1,2,3-triazol-1-yl)phenyl)-6-oxopyrimidin-1(6H)-yl)-N-(4-hydroxycyclohexyl)-3-phenylpropanamide]
17 | 6.64 | O=C(NC1CCCCC1)[C@H](Cc1ccccc1)n1cnc(-c2cc(Cl)ccc2-n2cc(Cl)nn2)cc1=O [Example 104, (S)-2-(4-(5-chloro-2-(4-chloro-1H-1,2,3-triazol-1-yl)phenyl)-6-oxopyrimidin-1(6H)-yl)-N-cyclohexyl-3-phenylpropanamide]
18 | 5.64 | Cn1ccc(CNC(=O)[C@H](Cc2ccccc2)n2cnc(-c3cc(Cl)ccc3-n3cc(Cl)nn3)cc2=O)n1 [Example 105, (S)-2-(4-(5-chloro-2-(4-chloro-1H-1,2,3-triazol-1-yl)phenyl)-6-oxopyrimidin-1(6H)-yl)-N-((1-methyl-1H-pyrazol-3-yl)methyl)-3-phenylpropanamide]
19 | 6.49 | Cc1ccc(NC(=O)[C@H](Cc2ccccc2)n2cnc(-c3cc(Cl)ccc3-n3cc(Cl)nn3)cc2=O)nn1 [Example 106, (S)-2-(4-(5-chloro-2-(4-chloro-1H-1,2,3-triazol-1-yl)phenyl)-6-oxopyrimidin-1(6H)-yl)-N-(6-methylpyridazin-3-yl)-3-phenylpropanamide]
20 | 5.34 | CC1=NN=C(NC(=O)[C@H](Cc2ccccc2)n2cnc(-c3cc(Cl)ccc3-n3cc(Cl)nn3)cc2=O)SC1 [Example 107, (S)-2-(4-(5-chloro-2-(4-chloro-1H-1,2,3-triazol-1-yl)phenyl)-6-oxopyrimidin-1(6H)-yl)-N-(5-methyl-6H-1,3,4-thiadiazin-2-yl)-3-phenylpropanamide]
21 | 6.66 | O=C(O)C[C@H]1CC[C@H](NC(=O)[C@H](Cc2ccccc2)n2cnc(-c3cc(Cl)ccc3-n3cc(Cl)nn3)cc2=O)CC1 [Example 108, 2-((1S,4r)-4-((S)-2-(4-(5-chloro-2-(4-chloro-1H-1,2,3-triazol-1-yl)phenyl)-6-oxopyrimidin-1(6H)-yl)-3-phenylpropanamido)cyclohexyl)acetic acid]
22 | 6.59 | O=C(Nc1nnc(C2CCC2)[nH]1)[C@H](Cc1ccccc1)n1cnc(-c2cc(Cl)ccc2-n2cc(Cl)nn2)cc1=O [Example 110, (S)-2-(4-(5-chloro-2-(4-chloro-1H-1,2,3-triazol-1-yl)phenyl)-6-oxopyrimidin-1(6H)-yl)-N-(5-cyclobutyl-4H-1,2,4-triazol-3-yl)-3-phenylpropanamide]
23 | 6.98 | NC(=O)c1ccc(NC(=O)[C@H](Cc2ccccc2)n2cnc(-c3cc(Cl)ccc3-n3cc(Cl)nn3)cc2=O)nc1 [Example 111, (S)-6-(2-(4-(5-chloro-2-(4-chloro-1H-1,2,3-triazol-1-yl)phenyl)-6-oxopyrimidin-1(6H)-yl)-3-phenylpropanamido)nicotinamide]
24 | 6.56 | N=C(N)c1ccc(NC(=O)[C@H](Cc2ccccc2)n2cnc(-c3cc(Cl)ccc3-n3cc(Cl)nn3)cc2=O)cc1 [Example 112, (S)-N-(4-carbamimidoylphenyl)-2-(4-(5-chloro-2-(4-chloro-1H-1,2,3-triazol-1-yl)phenyl)-6-oxopyrimidin-1(6H)-yl)-3-phenylpropanamide]
25 | 7.48 | NC(=O)c1ccc(NC(=O)[C@H](Cc2ccccc2)n2cnc(-c3cc(Cl)ccc3-n3cc(Cl)nn3)cc2=O)cc1 [Example 118, (S)-4-(2-(4-(5-chloro-2-(4-chloro-1H-1,2,3-triazol-1-yl)phenyl)-6-oxopyrimidin-1(6H)-yl)-3-phenylpropanamido)benzamide]
26 | 6.08 | O=C(NC1CCc2ccccc21)[C@H](Cc1ccccc1)n1cnc(-c2cc(Cl)ccc2-n2cc(Cl)nn2)cc1=O (stereo partly drawn) [Example 127, (2S)-2-(4-(5-chloro-2-(4-chloro-1H-1,2,3-triazol-1-yl)phenyl)-6-oxopyrimidin-1(6H)-yl)-N-(2,3-dihydro-1H-inden-1-yl)-3-phenylpropanamide]
27 | 6.08 | O=C(NC1COc2ccccc21)[C@H](Cc1ccccc1)n1cnc(-c2cc(Cl)ccc2-n2cc(Cl)nn2)cc1=O (stereo partly drawn) [Example 128, (2S)-2-(4-(5-chloro-2-(4-chloro-1H-1,2,3-triazol-1-yl)phenyl)-6-oxopyrimidin-1(6H)-yl)-N-(2,3-dihydrobenzofuran-3-yl)-3-phenylpropanamide]
